Where a name gives a salt, the structure may show the parent alone.
Tested on: not given
Test: not given
Conditions: not given

| SMILES | melting point |
| --- | --- |
| Cl.O=C(O)CCN1CCOC(c2ccc(OCc3ccccc3C(F)(F)F)c(Cl)c2)C1 (stereo not drawn) | 199 to 201 °C |
| Cl.O=C(O)CCN1CCOC(c2ccc(OCc3c(F)cccc3Cl)cc2F)C1 (stereo not drawn) | 189 to 190 °C |
| Cl.O=C(O)CCN1CCOC(c2ccc(OCc3ccccc3C(F)(F)F)cc2F)C1 (stereo not drawn) | 201 to 201.5 °C |
| Cl.O=C(O)CCN1CCOC(c2ccc(OCc3c(Cl)cccc3Cl)cc2C(F)(F)F)C1 (stereo not drawn) | 195 to 197 °C |
| CCCc1cc(Cl)c(COc2ccc(C3CN(CCC(=O)O)CCO3)cc2)c(Cl)c1.Cl (stereo not drawn) | 101 to 103 °C |
| CC(C)c1cc(Cl)c(COc2ccc(C3CN(CCC(=O)O)CCO3)cc2)c(Cl)c1.Cl (stereo not drawn) | 108 to 110 °C |
| CC#Cc1cc(Cl)c(COc2ccc(C3CN(CCC(=O)O)CCO3)cc2)c(Cl)c1.Cl (stereo not drawn) | 220 to 224 °C |
| Cl.O=C(O)CCN1CCOC(c2ccc(OCc3cccc(C(F)(F)F)c3)cc2C(F)(F)F)C1 (stereo not drawn) | 209 to 211 °C |
| CCc1cccc(Cl)c1COc1ccc(C2CN(CCC(=O)O)CCO2)c(C(F)(F)F)c1.Cl (stereo not drawn) | 214 to 215 °C |
| Cl.O=C(O)CCN1CCOC(c2ccc(OCc3c(Cl)cccc3OC(F)(F)F)cc2C(F)(F)F)C1 (stereo not drawn) | 179 to 182 °C |
| CC(C)c1cccc(Cl)c1COc1ccc(C2CN(CCC(=O)O)CCO2)c(C(F)(F)F)c1.Cl (stereo not drawn) | 206 to 210 °C |
| Cl.O=C(O)CCN1CCOC(c2ccc(OCc3c(F)cccc3Cl)cc2C(F)(F)F)C1 (stereo not drawn) | 171.5 to 172.5 °C |
| Cl.O=C(O)CCN1CCOC(c2ccc(OCc3c(Cl)cccc3C(F)(F)F)cc2C(F)(F)F)C1 (stereo not drawn) | 200 to 201 °C |
| Cl.O=C(O)CCN1CCOC(c2ccc(OCc3c(Cl)cccc3C3CC3)cc2C(F)(F)F)C1 (stereo not drawn) | 203 to 204 °C |
| Cl.O=C(O)CCN1CCOC(c2cccc(OCc3ccccc3)c2)C1 (stereo not drawn) | 222 to 225 °C |
| Cl.O=C(O)CCN1CCOC(c2cccc(OCc3c(Cl)cccc3Cl)c2)C1 (stereo not drawn) | 229 to 230 °C |
| Cl.O=C(O)CCN1CCOC(c2cccc(OCc3ccccc3Cl)c2)C1 (stereo not drawn) | 233 to 234 °C |
| Cl.O=C(O)CCN1CCSC(c2ccc(OCc3ccccc3Cl)cc2)C1 (stereo not drawn) | 178 to 182 °C |
| COc1cc(C2CN(CCC(=O)O)CCO2)ccc1OCc1c(F)cccc1Cl.Cl (stereo not drawn) | 169 to 171 °C |
| COc1cc(C2CN(CCC(=O)O)CCO2)ccc1OCc1c(Cl)cccc1Cl.Cl (stereo not drawn) | 214 to 216 °C |
| O=C(O)CCN1CCOC(c2ccc(OC3CCc4ccccc43)cc2)C1 (stereo not drawn) [Compound 219, 3-{2-[4-(Indan-1-yloxy)-phenyl]-morpholin-4-yl}propionic acid] | 124 to 129.5 °C |
| O=C(O)CCN1CCOC(c2ccc(OC3COc4ccccc43)cc2)C1 (stereo not drawn) [Compound 221, 3-{2-[4-(2,3-Dihydro-benzofuran-3-yloxy)-phenyl]-morpholin-4-yl}-propionic acid] | 141.5 to 144.5 °C |

Biological target: T1, human S1P5 receptor (Homo sapiens, UniProt Q9H228)
T1 construct: host or cells: CHO (AequoScreen recombinant cell line, co-expressing mitochondrially targeted apo-aequorin)
T1 sequence (Q9H228 whole entry): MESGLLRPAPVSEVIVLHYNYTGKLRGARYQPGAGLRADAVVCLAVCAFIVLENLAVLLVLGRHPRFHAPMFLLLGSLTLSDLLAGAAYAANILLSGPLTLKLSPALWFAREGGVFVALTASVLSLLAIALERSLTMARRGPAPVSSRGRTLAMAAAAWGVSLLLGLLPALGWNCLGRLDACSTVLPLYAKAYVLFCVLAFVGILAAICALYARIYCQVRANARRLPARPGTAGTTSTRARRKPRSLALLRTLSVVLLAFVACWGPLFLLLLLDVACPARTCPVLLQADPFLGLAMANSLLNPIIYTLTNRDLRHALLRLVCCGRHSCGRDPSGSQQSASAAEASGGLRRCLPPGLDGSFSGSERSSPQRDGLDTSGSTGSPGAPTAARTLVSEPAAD
Test: In vitro functional activity (agonism), CHO-human-S1P5-Aequorin assay
Format: cell-based
Conditions: read-out: S1P5 pEC50 (converted)
Description: In Vitro Functional Activity (Agonism) on Human S1P5 Receptors
The CHO-human-S1P5-Aeqorin assay was bought from Euroscreen, Brussels (Euroscreen, Technical dossier, Human Lysophospholid S1P5 (Edg8) receptor, DNA clone and CHO AequoScreen™ recombinant cell-line, catalog no: ES-593-A, September 2006). Human-S1P5-Aequorin cells express mitochondrial targeted apo-Aequorin. Cells have to be loaded with coelanterazine, in order to reconstitute active Aequorin. After binding of agonists to the human S1P5 receptor the intracellular calcium concentration increases and binding of calcium to the apo-Aequorin/coelenterazine complex leads to an oxidation reaction of coelenterazine, which results in the production of apo-Aequorin, coelenteramide, CO2 and light (λmax 469 nm). This luminescent response is dependent on the agonist concentration. Luminescence is measured using the MicroBeta Jet (Perkin Elmer). Agonistic effects of compounds are expressed as pEC50. Compounds were tested at a 10 points half log concentration range, and 3 independent experiments were performed in single point's measurements.

| SMILES | EC50 |
| --- | --- |
| Cc1ccc(COc2ccc(C3CN(CCC(=O)O)CCO3)cc2)c(Cl)c1 (stereo not drawn) [Compound 196, 3-{2-[4-(2-Chloro-4-methyl-benzyloxy)-phenyl]-morpholin-4-yl}-propionic acid hydrochloride] | 1000 nM |
| CCCCCCCCSc1ccc(C2CN(CCC(=O)O)CCO2)cc1 (stereo not drawn) [Compound 204, 3-[2-(4-Octylsulfanyl-phenyl)-morpholin-4-yl]-propionic acid Hydrochloride] | 398 nM |
